Here are results for 22 compounds from patent publication US11046657B2, “Pyrimidinone derivatives and uses thereof to neutralize the biological activity of chemokines” (Centre National de la Recherche Scientifique (CNRS), priority 2016, dated 2021).

For series [1], the target named is T1, CXCR4-CXCL12 binding (Homo sapiens, UniProt P48061).
T1 construct: expressed in transfected cells
In words: Inhibition of CXCL12-TR binding to CXCR4-GFP (FRET). The conditions noted are these: for Affinity for CXCL12 (SAR): deduced from comparative examples. The method, then:
Study of the changes of CXCR4-CXCL12 binding was achieved by the energy transfer technique^10,11.
Binding of Texas red-labelled CXCL12 with CXCR4-GFP fused receptor^11 induces fluorescence resonance energy transfer (FRET), which can be monitored by the reduction of GFP fluorescence emission. The characterization of CXCL12 neutraligands was evaluated in two conditions, differing by the sequence of addition of molecules. Reduction of GFP fluorescence emission was more important when neutraligands were preincubated (30 min) […] prior to the addition to cells.
The CXCR4 antagonist, T134 (20 μM) was used as a control in both incubation protocols. Data obtained were consistent with a binding to the chemokine and not to its receptor. Consequently, all selected compounds are indeed CXCL12 chemokine neutraligands and behave as chalcone-4. The neutralizing properties of the compounds are thus confirmed.

Structures can show the parent of a compound that is named as a salt.

As usually defined, the melting point is the temperature, or range, at which the solid turns liquid. What is called inhibition is the relative decrease from the control value, in per cent.

T1 sequence (P48061 22-89 limits assumed): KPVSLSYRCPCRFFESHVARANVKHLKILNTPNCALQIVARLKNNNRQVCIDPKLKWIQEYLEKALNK

In turn, `COc1cc(-c2cc(-c3ccc(N4CCNCC4)cc3)nc(=O)[nH]2)ccc1O.Cl` showed a melting point of 117 to 124 °C. Same read-out and setting: with `Cl.NCCOc1cc(-c2cc(-c3ccc(Cl)cc3)nc(=O)[nH]2)ccc1O` the figure was 272 to 276 °C. Same read-out and setting: to `COc1cc(-c2cc(-c3ccc(N(C)C)nc3)nc(=O)[nH]2)ccc1O.Cl` belongs 257 to 260 °C. Same read-out and setting: with `COc1cc(-c2cc(-c3ccc(N4CCN(C)CC4)cc3)nc(=O)[nH]2)ccc1O` (as salt: hydrochloride) the figure was 300 to 303 °C. `COc1ccc(-c2cc(-c3ccc(O)c(OC)c3)[nH]c(=O)n2)cc1` [(2), 4-(4-methoxyphenyl)-6-(4-hydroxy-3-methoxyphenyl)-pyrimidin-2(1H)-one] returned an inhibition at 10 µM in series [1] (Table 2) of 96 ± 3%. On the same count and under the same terms, to `COc1cc(-c2cc(-c3ccc(O)cc3)nc(=O)[nH]2)ccc1O` [(3), 4-(4-hydroxyphenyl)-6-(4-hydroxy-3-methoxyphenyl)-pyrimidin-2(1H)-one] belongs 53 ± 6%; to `COc1cc(-c2cc(-c3ccc(C(C)C)cc3)nc(=O)[nH]2)ccc1O` [(4), 4-(4-isopropylphenyl)-6-(4-hydroxy-3-methoxyphenyl)-pyrimidin-2(1H)-one], 35 ± 4%; to `COc1cc(-c2cc(-c3ccc(F)cc3)nc(=O)[nH]2)ccc1O` [(5), 4-(4-fluorophenyl)-6-(4-hydroxy-3-methoxyphenyl)pyrimidin-2(1H)-one], 46 ± 4%.

With `COc1cc(-c2cc(-c3ccccc3Cl)nc(=O)[nH]2)ccc1O` [(7), 4-(2-chlorophenyl)-6-(4-hydroxy-3-methoxyphenyl)pyrimidin-2(11H)-one], at 10 µM the inhibition in series [1] (Table 2) was 62 ± 5%. For `COc1cc(-c2cc(-c3ccccc3)nc(=O)[nH]2)ccc1O` [(8), 4-(phenyl)-6-(4-hydroxy-3-methoxyphenyl)-pyrimidin-2(1H)-one], the inhibition at 10 µM in series [1] (Table 2) worked out at 46 ± 8%.

In series [1] (Table 2), `O=c1nc(-c2ccc(Cl)cc2)cc(-c2ccc(O)c(OC(F)(F)F)c2)[nH]1` [(9), 4-(4-chlorophenyl)-6-(4-hydroxy-3-(trifluoromethoxy)phenyl)pyrimidin-2(1H)-one] had an inhibition at 10 µM of 52 ± 10%. Turning to `COc1ccc(-c2cc(-c3ccc(Cl)cc3)nc(=O)[nH]2)cc1O` [(10), 4-(4-chlorophenyl)-6-(3-hydroxy-4-methoxyphenyl)pyrimidin-2(1H)-one], testing at 10 µM in series [1] (Table 2) gave an inhibition of 39 ± 7%.

Consider `COc1cc(-c2cc(-c3ccc(Cl)cc3)nc(=O)[nH]2)ccc1C(=O)O` [(27), 4-(6-(4-chlorophenyl)-2-oxo-2,3-dihydropyrimidin-4-yl)-2-methoxybenzoic Acid], for which the melting point was 257 to 261 °C. As to `COc1cc(-c2cc(-c3ccco3)nc(=O)[nH]2)ccc1O` [(28), 4-(furan-2-yl)-6-(4-hydroxy-3-methoxyphenyl)pyrimidin-2(1H)-one], the inhibition at 10 µM in series [1] (Table 4) was 44 ± 1%. Same read-out and setting: with `COc1cc(-c2cc(-c3ccc(Cl)s3)nc(=O)[nH]2)ccc1O` [(33), 4-(5-chlorothiophen-2-yl)-6-(4-hydroxy-3-methoxyphenyl)pyrimidin-2(1H)-one] the figure was 58 ± 15%.

For the compound `COc1cc(-c2cc(-c3ccc(O)c(C)c3)nc(=O)[nH]2)ccc1O` [(59)], in series [1] (Table 3), the inhibition at 10 µM stood at 83 ± 2%. On to `COc1cc(-c2cc(-c3ccc[nH]3)nc(=O)[nH]2)ccc1O` [(60)], for which the inhibition at 10 µM in series [1] (Table 4) was 53 ± 14%. In turn, `COc1ccc(-c2cc(-c3ccc(Cl)cc3)nc(=O)[nH]2)cc1OC` [(D), 4-(4-chlorophenyl)-6-(4-methoxy-3-methoxyphenyl)pyrimidin-2(1H)-one, reference compound] displayed an inhibition at 10 µM in series [1] (Table 3) of 26 ± 1%.

For `COc1ccc(-c2cc(-c3ccc(O)c(C)c3)nc(=O)[nH]2)cc1OC` [(E), 4-(4-hydroxy-3-methylphenyl)-6-(4-methoxy-3-methoxyphenyl)pyrimidin-2(1H)-one, reference compound], at 10 µM the inhibition in series [1] (Table 3) was 1.8 ± 0.7%.

With `O=c1nc(-c2ccc(Cl)cc2)cc(-c2ccc(O)cc2)[nH]1` [compound (A), 4-(4-chlorophenyl)-6-(4-hydroxyphenyl)pyrimidin-2(1H)-one, reference compound], in series [1] (Table 2), the inhibition at 10 µM came to 4.3 ± 3%. The “Affinity for CXCL12 (SAR)” value in series [1] was “loss of affinity”. As for `O=c1nc(-c2ccc(Cl)cc2)cc(-c2ccccc2)[nH]1` [compound (B), 4-(4-chlorophenyl)-6-phenylpyrimidin-2(1H)-one, reference compound], the inhibition at 10 µM in series [1] (Table 2) came out at 19 ± 7%. The compound `COc1cccc(-c2cc(-c3ccc(Cl)cc3)nc(=O)[nH]2)c1` [compound (C), 4-(4-chlorophenyl)-6-(3-methoxyphenyl)pyrimidin-2(1H)-one, reference compound] registered an inhibition at 10 µM in series [1] (Table 2) of 10 ± 5%. Further, the “Affinity for CXCL12 (SAR)” value in series [1] is “loss of affinity”.
